Experimental data published in patent US12110293B2, “Substituted triazolo quinoxaline derivatives” (GRÜNENTHAL GMBH, priority 2018, dated 2024).

Molecular target: T1, glucocorticoid receptor (Homo sapiens, UniProt P04150)
T1 construct: expressed in transfected cells
T1 sequence (P04150 524-758 limits assumed): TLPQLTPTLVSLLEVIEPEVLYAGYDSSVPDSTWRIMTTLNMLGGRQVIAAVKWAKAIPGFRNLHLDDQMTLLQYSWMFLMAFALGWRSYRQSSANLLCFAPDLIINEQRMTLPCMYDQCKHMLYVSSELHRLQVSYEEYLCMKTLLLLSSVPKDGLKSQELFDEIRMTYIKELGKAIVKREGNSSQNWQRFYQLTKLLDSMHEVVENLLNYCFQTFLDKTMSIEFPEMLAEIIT
Assay: Agonistic mode of action on the glucocorticoid receptor (CHO-Gal4/GR luciferase reporter cell line)
Format: cell-based
Conditions: range class observed in the agonistic assay or the antagonistic assay (CHO-Gal4/GR reporter cells); table does not say which mode applies per example
Summary of the method: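 Agonism measured as dose-dependent luciferase luminescence (FLIPR Tetra) from a GAL4-UAS reporter driven by GAL4 DBD fused to GR ligand-binding domain in stable CHO cells. Eight half-log doses, 10 μM to 0.003 μM final in 0.5% DMSO, quadruplicate, on cells seeded 24 h earlier at 5000/well; EC50 derived.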

Structure (SMILES) | IC50 or EC50 (agonist or antagonist mode not specified)
Cc1cc2c(c(F)c1-c1cccc3c1ccn3CC(F)F)-n1c(C)nnc1C(C)(C)N2 [Example 392, 8-[1-(2,2-Difluoro-ethyl)-1H-indol-4-yl]-9-fluoro-1,4,4,7-tetramethyl-5H-[1,2,4]triazolo[4,3-a]quinoxaline] | 1000 to 15000 nM
Cc1nnc2n1-c1c(cc(F)c(-c3cccc4c3ccn4S(C)(=O)=O)c1C(F)F)NC2(C)C [Example 315, 9-(Difluoro-methyl)-7-fluoro-1,4,4-trimethyl-8-(1-methylsulfonyl-1H-indol-4-yl)-5H-[1,2,4]triazolo[4,3-a]quinoxaline] | 100 to 1000 nM
Cc1nnc2n1-c1c(cc(Cl)c(-c3cccc4c3cnn4C)c1F)NC2(C)C [Example 285, 7-Chloro-9-fluoro-1,4,4-trimethyl-8-(1-methyl-1H-indazol-4-yl)-5H-[1,2,4]triazolo[4,3-a]quinoxaline] | 1000 to 15000 nM
COc1c(-c2cccc3c2ccn3S(C)(=O)=O)c(F)cc2c1-n1c(C)nnc1C(C)(C)N2 [Example 248, 7-Fluoro-9-methoxy-1,4,4-trimethyl-8-(1-methylsulfonyl-1H-indol-4-yl)-5H-[1,2,4]triazolo[4,3-a]quinoxaline] | 100 to 1000 nM
Cc1c(-c2cccc3[nH]ncc23)c(F)cc2c1-n1c(C)nnc1C(C)(C)N2 [Example 510, 7-Fluoro-8-(1H-indaxol-4-yl)-1,4,4,9-tetramethyl-5H-[1,2,4] triazolo[4,3-a]quinoxaline] | 100 to 1000 nM
Cc1c(-c2cc(F)cc3c(C)c[nH]c23)c(OC(F)(F)F)cc2c1-n1c(C)nnc1C(C)(C)N2 [Example 458, 8-(5-Fluoro-3-methyl-1H-indol-7-yl)-1,4,4,9-tetramethyl-7-(trifluoromethyloxy)-5H-[1,2,4]triazolo[4,3-a]quinoxaline] | 100 to 1000 nM
COc1cc2c(c(C(F)(F)F)c1-c1cccc3c(C)c[nH]c13)-n1c(C)nnc1C(C)(C)N2 [Example 357, 7-Methoxy-1,4,4-trimethyl-8-(3-methyl-1H-indol-7-yl)-9-(trifluoromethyl)-5H-[1,2,4]triazolo[4,3-a]quinoxaline] | < 100 nM
Cc1c(-c2cc(F)cc3c2cnn3S(C)(=O)=O)c(F)cc2c1-n1c(C)nnc1C(C)(C)N2 [Example 279, 7-Fluoro-8-(6-fluoro-1-methylsulfonyl-1H-indazol-4-yl)-1,4,4,9-tetramethyl-5H-[1,2,4]triazolo[4,3-a]quinoxaline] | < 100 nM
Cc1c[nH]c2c(-c3ccc4c(c3C(F)F)-n3c(C)nnc3C(C)(C)N4)cc(F)cc12 [Example 527, 9-(Difluoro-methyl)-8-(5-fluoro-3-methyl-1H-indol-7-yl)-1,4,4-trimethyl-5H-[1,2,4]triazolo [4,3-a]quinoxaline] | < 100 nM
Cc1nnc2n1-c1c(cc(OC(F)F)c(-c3cccc4c3ccn4S(C)(=O)=O)c1F)NC2(C)C [Example 275, 7-(Difluoro-methoxy)-9-fluoro-1,4,4-trimethyl-8-(1-methylsulfonyl-1H-indol-4-yl)-5H-[1,2,4]triazolo[4,3-a]quinoxaline] | 1000 to 15000 nM
CCS(=O)(=O)n1ccc2c(-c3c(F)cc4c(c3F)-n3c(C)nnc3C(C)(C)N4)cc(F)cc21 [Example 18, 8-(1-(ethylsulfonyl)-6-fluoro-1H-indol-4-yl)-7,9-difluoro-1,4,4-trimethyl-4,5-dihydro-[1,2,4]triazolo[4,3-a]quinoxaline] | 100 to 1000 nM
Cc1nnc2n1-c1c(cc(F)c(-c3cccc4cc[nH]c34)c1F)NC2(C)C [Example 9, 7,9-difluoro-8-(1H-indol-7-yl)-1,4,4-trimethyl-4,5-dihydro-[1,2,4]triazolo[4,3-a]quinoxaline] | 100 to 1000 nM
Cc1c(-c2cccc3c2ccn3CC(F)F)c(Cl)cc2c1-n1c(C)nnc1C(C)(C)N2 [Example 327, 7-Chloro-8-[1-(2,2-difluoro-ethyl)-1H-indol-4-yl]-1,4,4,9-tetramethyl-5H-[1,2,4]triazolo[4,3-a]quinoxaline] | 100 to 1000 nM
COc1cc2c(c(C(F)(F)F)c1-c1cccc3c1ccn3C1CC1)-n1c(C)nnc1C(C)(C)N2 [Example 523, 8-(1-Cyclopropyl-1H-indol-4-yl)-7-methoxy-1,4,4-trimethyl-9-(trifluoromethyl)-5H-[1,2,4]triazolo[4,3-a]quinoxaline] | 100 to 1000 nM
Cc1c[nH]c2c(-c3c(F)cc4c(c3C3CC3)-n3c(C)nnc3C(C)(C)N4)cccc12 [Example 463, 9-Cyclopropyl-7-fluoro-1,4,4-trimethyl-8-(3-methyl-1H-indol-7-yl)-5H-[1,2,4]triazolo[4,3-a] quinoxaline] | < 100 nM
Cc1c(-c2cccc3c2ccn3S(C)(=O)=O)c(Cl)cc2c1-n1c(C)nnc1C(C)(C)N2 [Example 317, 7-Chloro-1,4,4,9-tetramethyl-8-(1-methylsulfonyl-1H-indol-4-yl)-5H-[1,2,4]triazolo[4,3-a]quinoxaline] | 1000 to 15000 nM
Cc1c[nH]c2c(-c3c(F)cc4c(c3C(F)F)-n3c(C)nnc3C(C)(C)N4)cc(F)cc12 [Example 302, 9-(Difluoro-methyl)-7-fluoro-8-(5-fluoro-3-methyl-1H-indol-7-yl)-1,4,4-trimethyl-5H-[1,2,4]triazolo[4,3-a]quinoxaline] | < 100 nM
Cc1nnc2n1-c1c(cc(F)c(-c3cccc4c(C(F)(F)F)c[nH]c34)c1F)NC2(C)C [Example 10, 7,9-difluoro-1,4,4-trimethyl-8-(3-(trifluoromethyl)-1H-indol-7-yl)-4,5-dihydro-[1,2,4]triazolo[4,3-a]quinoxaline] | 100 to 1000 nM
Cc1nnc2n1-c1c(cc(Cl)c(-c3cc(F)cc4c3cnn4CC(F)F)c1F)NC2(C)C [Example 508, 7-Chloro-8-[1-(2,2-difluoro-ethyl)-6-fluoro-1H-indazol-4-yl]-9-fluoro-1,4,4-trimethyl-5H-[1,2,4] triazolo[4,3-a]quinoxaline] | 100 to 1000 nM
Cc1nnc2n1-c1c(cc(F)c(-c3cccc4c3cnn4C(=O)OC(C)(C)C)c1F)NC2(C)C [Example 238, 4-(7,9-Difluoro-1,4,4-trimethyl-5H-[1,2,4]triazolo[4,3-a]quinoxalin-8-yl)-1H-indazole-1-carboxylic acid tert-butyl ester] | 100 to 1000 nM
Cc1nnc2n1-c1c(ccc(-c3cccc4c3ccn4S(C)(=O)=O)c1C(F)(F)F)NC2(C)C [Example 498, 1,4,4-Trimethyl-8-(1-methylsulfonyl-1H-indol-4-yl)-9-(trifluoromethyl)-5H-[1,2,4]triazolo[4,3-a]quinoxaline] | 100 to 1000 nM
Cc1nnc2n1-c1c(cc(F)c(-c3cccc4c3ccn4C(=O)CN(C)C)c1F)NC2(C)C [Example 223, 1-[4-(7,9-Difluoro-1,4,4-trimethyl-5H-[1,2,4]triazolo[4,3-a]quinoxalin-8-yl)-1H-indol-1-yl]-2-dimethylamino-ethanone] | < 100 nM
